Values after ≈ are worked out from the molar mass of the structure shown.
Experiments:
[1] = molecular target: T1, HIV-1 gp120 V3 hypervariable loop (Human immunodeficiency virus type 1 group M subtype B, UniProt P03375); assay: biochemical; format: binding; for Inhibitory activity: key: Chemicals with inhibitory activity are indicated by +
T1 construct: Polystyrene plates coated with recombinant gp120 and gp160, respectively; purchased American Bio-Technologies, Inc., Cambridge, Mass; host or cells: baculovirus expression system
Method in brief: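 Inhibition RIA/ELISA: gp120/gp160-coated or synthetic peptide-coated wells (gp120/gp41 of HIV-1 BH10 and V3 loops of 21 isolates) incubated overnight at 25 °C with rabbit anti-peptide antisera (1:150, or 1:1,000 for V3) ± compound (ATA 50 μg/ml). Bound IgG detected with 125I-anti-rabbit IgG; percent inhibition versus no-compound control.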

HIV-1 = assay: Antiviral activity: inhibition of P24 production in MT-2 cells; format: cell-based, HIV-1 IIIB
Method: All chemicals were tested at serial two-fold dilutions (1.25-80 μg/ml, prepared from a stock solution containing 10 mg/ml in dimethylsulfoxide). The chemicals were obtained from Aldrich, Milwaukee, Wis. or were synthesized. Their inhibitory activity was determined by two distinct methods, based on inhibition of synthesis of core protein P24 and on protection by the chemicals of cells against the cytopathic effect of HIV-1 (colorimetric method) respectively.
The chemicals were serially diluted in RPMI 1640 medium without phenol red (GIBCO, Grand Island, N.Y.) containing 10% fetal calf serum (FCS). Aliquots of the diluted solutions were added to wells of 96 well plates and mixed with an equal volume of diluted HIV-1 [multiplicity of infection (MOI) =0.0045]. After incubation for 1 hour at 37° C., 25 μl of polybrene (1 μg/ml) treated MT-2 cells (Harada, S., Koyanagi, Y., Yamamoto, N., (1985), "Infection of HTLV-III/LAV in HTLV-I-carrying Cells MT-2 and MT-4 and Application in a Plaque Assay", Science, 229, 563-566), (5,000 cells/well) were added. The mixture was incubated for 1 hour at 37° C. and the volume was adjusted with RPMI 1640 medium with 10% FCS to 200 μl. On the fourth day after incubation at 37° C., 100 μl of culture supernatants were collected from each well and equal volumes of fresh medium were added to the wells. The supernatants were assayed for P24 using a kit from Coulter Immunology (Hialeah, Fla.). On the sixth day, an indicator XTT tetrazolium dye (1 mg/ml; 50 μl/well; PolySciences, Inc., Warrington, Penna.) was added to the cells. After 4 hours, intracellular formazan was determined colorimetrically at 450 nm.
^c Chemicals with inhibitory activity in ELISA (RIA) tests were teste
^d EC50 = concentration at which the production of P24 was […]

`O=C(O)C1=CC(=C(c2ccc(O)c(C(=O)O)c2)c2ccc(O)c(C(=O)O)c2)C=CC1=O` [substance #122, aurintricarboxylic acid] was tested, and the “extent of inhibition of reaction between gp120 and anti-V3 antibodies versus antibody dilution” value ([1]; ATA 50 μg/ml, FIG. 3) was “correlated with the dilution of antibodies” and the “inhibition of attachment to gp120 of antibodies against the (303-338) segment” value ([1]; ATA 50 μg/ml, antisera 1:150, significant inhibition (FIG. 1A)) was no less than 22%.

In the case of `C=Cc1c(C)c2cc3nc(c(CC(=O)O)c4[nH]c(cc5nc(cc1[nH]2)C(C)=C5CC)c(C)c4C(=O)O)[C@@H](CCC(=O)O)[C@@H]3C` [substance #149, chlorine e6], the Inhibitory activity ([1]; Table 1, reaction between HIV-1 gp120 and anti-V3 loop antibodies) is reported as “+”, the inhibition at 50 µg/mL ([1]; read-out: percentage of inhibition) is reported as 76.3% and the EC50 (HIV-1; Human immunodeficiency virus 1, MT2, read-out: EC50 (concentration at which the production of P24 was reduced to 50% of that detected in control cultures)) is reported as 0.8 µg/mL (≈ 1.34 µM). It also gave an inhibition at 40 µg/mL (HIV-1; Human immunodeficiency virus 1, MT2, read-out: percentage of inhibition of P24 nucleoprotein production) of 100%.
